In brackets after ≈: the same amount, converted by molar mass.
Tests used:
Aspergillus fumig. = experiment: Antimycotic in-vitro activity, serial dilution test (MIC); type: cell-based, Aspergillus fumigatus; conditions: Aspergillus, 96 h, Sabouraud medium, 20°C, inoculum 5 x 10^4 germs/ml, read-out: MHK-Werte in γ/ml Nährmedium, Aspergillus fumig.
Description: (§1) Die in-vitro-Prüfungen wurden im Reihenverdünnungstest mit Keiminokula von durchschnittlich 5 x 10^4 Keimen/ml Substrat durchgeführt. Als Nährmedium dienten • a) für Dermatophyten und Schimmelpilze: Sabourand's milieu d'epreuve • b) für Hefen: Fleischextrakt-Traubenzucker-Bouillon.
(§2) Die Bebrütungstemperatur betrug 20°C, die Bebrütungsdauer lag bei 24 bis 96 Stunden bei Hefen und 96 Stunden bei Dermatophyten und Schimmelpilzen.

[1] = tested on: Dermatophyten und Schimmelpilze, Hefen; experiment: Antimycotic in-vitro activity, serial dilution test, overall comparison with known compounds; type: cell-based; conditions: compared with known compounds (A),(B),(C) and (D)
Description: as §1, §2

[2] = tested on: Trichophyton mentagrophytes; experiment: Antimycotic in-vivo activity (local) in experimental guinea pig trichophytosis; parameters: species or system Meerschweinchen; key to Wirkung: +++++: sehr gute Wirkung = keine Infektionszeichen am 12.-15.Tag p.i.; ++++: gute Wirkung = geringe Rötung, vereinzelt Schuppen; +++: Wirkung = Rötung, Schuppung, ohne Haarausfall; ++: schwache Wirkung = Rötung, Schuppung, Haarausfall; +: Spur Wirkung = flächiger Haarausfall, entzündliche Hautreaktion; conditions: for Wirkungen: local treatment; for Wirkung: local treatment 1x daily from day 3 p.i. with a 15% solution in dimethylsulfoxide : glycerol = 1 : 4, signs of infection day 12-15 p.i.
Trichophyton mentagr. = experiment: Antimycotic in-vitro activity, serial dilution test (MIC); type: cell-based, Trichophyton mentagrophytes; conditions: Trichophyton; Sabouraud medium, 20°C, 96 hours, inoculum 5 x 10^4 germs/ml; read-out: MHK-Werte in γ/ml Nährmedium, Trichophyton mentagr.
Description: as §1, §2

Candida-Zellen = experiment: Antimycotic in-vivo activity (oral) in mouse candidosis; parameters: species or system Mäuse vom Typ SPF-CF1; key: +++++: sehr gute Wirkung = 90 % Ueberlebende am 6.Tag p.i.; ++++: gute Wirkung = 80 % Ueberlebende am 6.Tag p.i.; +++: Wirkung = 60 % Ueberlebende am 6.Tag p.i.; ++: schwache Wirkung = 40 % Ueberlebende am 6.Tag p.i.; +: Spur Wirkung; k.W.: keine Wirkung
Description: Mäuse vom Typ SPF-CF1 wurden intravenös mit 1 - 2 x 10^6 logarithmisch wachsenden Candida-Zellen, die in physiologischer Kochsalzlösung suspendiert werden, infiziert. Eine Stunde vor und sieben Stunden nach der Infektion werden die Tiere mit jeweils 50 - 100 mg/kg Körpergewicht der Präparate oral behandelt.
Uhbehandelte Tiere starben 3 bis 6 Tage post infektionem. Die Ueberlebensrate am 6.Tag post infektionem betrug bei uhbehandelten Kontrolltieren etwa 5 %.
• +++++ = sehr gute Wirkung = 90 % Ueberlebende am 6.Tag p.i. • ++++ = gute Wirkung = 80 % Ueberlebende am 6.Tag p.i. • +++ = Wirkung = 60 % Ueberlebende am 6.Tag p.i. • ++ = schwache Wirkung = 40 % Ueberlebende am 6.Tag p.i. • + = Spur Wirkung = k.W. = keine Wirkung

Microsporum canis = experiment: Antimycotic in-vitro activity, serial dilution test (MIC); type: cell-based; conditions: Sabouraud medium, 20°C, inoculum 5 x 10^4 germs/ml; for MHK-Werte in γ/ml Nährmedium, Microsporum canis: 96 hours; for MIC: Microsporum canis, 96 h, read-out: MHK-Werte in γ/ml Nährmedium, Microsporum canis
Description: as §1, §2

Torulopsis glabrata = experiment: as above; type: cell-based; conditions: meat extract-glucose broth, 20°C, 24 to 96 hours, inoculum 5 x 10^4 germs/ml; for MIC: Nakaseomyces glabratus, read-out: MHK-Werte in γ/ml Nährmedium, Torulopsis glabrata
Description: as §1, §2

Candida albicans = experiment: as above; type: cell-based; conditions: meat extract-glucose broth, 20°C, 24 to 96 hours, inoculum 5 x 10^4 germs/ml; for MIC: Candida albicans, read-out: MHK-Werte in γ/ml Nährmedium, Candida albicans
Description: as §1, §2

[3] = mice infected i.v. with 1 - 2 x 10^6 Candida cells, oral 50 - 100 mg/kg one hour before and seven hours after infection, survivors on day 6 p.i.
[4] = mouse candidosis, oral, compared with known compounds (A), (B), (C) and (D)

Structure (SMILES)	MIC (Aspergillus fumig.)	MIC (Trichophyton mentagr.)	MIC (Candida albicans)	MIC (Microsporum canis)	MIC (Torulopsis glabrata)	antimykotische Wirkung [1]	Wirkungen [2]	Wirkung [2]	Wirkung (Candida-Zellen; [3])	Wirkung (Candida-Zellen; [4])	MHK-Werte in γ/ml Nährmedium, Microsporum canis (Microsporum canis)	MHK-Werte in γ/ml Nährmedium, Torulopsis glabrata (Torulopsis glabrata)	MHK-Werte in γ/ml Nährmedium, Candida albicans (Candida albicans)
CCC(C(O)c1ccc(Oc2ccc(Cl)cc2)cc1)n1cncn1 (single isomer, unassigned) [Beispiel 29]	32 µg/mL (≈ 93.1 µM)	< 1 µg/mL				bessere antimykotische Wirkung	bestimmte Wirkungen	+++	+++++ (sehr gute Wirkung = 90 % Ueberlebende am 6.Tag p.i.)	bessere Wirkung	8 µg/mL	8 µg/mL	8 µg/mL
CCCC(C(O)c1ccc(Oc2ccc(Cl)cc2)cc1)n1cncn1 (single isomer, unassigned) [Beispiel 32]							bestimmte Wirkungen	+++	+++++ (sehr gute Wirkung = 90 % Ueberlebende am 6.Tag p.i.)	bessere Wirkung			
CCCC(C(=O)c1ccc(Oc2ccc(Cl)cc2)cc1)n1cncn1 (stereo not drawn) [Beispiel 6]							bestimmte Wirkungen	++++	+++ (Wirkung = 60 % Ueberlebende am 6.Tag p.i.)	bessere Wirkung			
CCCCCCCC(C(O)c1ccc(Oc2ccc(Cl)cc2)cc1)n1cncn1 (stereo not drawn) [Beispiel 36]	64 µg/mL (≈ 155 µM)	< 1 µg/mL	4 µg/mL (≈ 9.66 µM)	32 µg/mL (≈ 77.3 µM)	16 µg/mL (≈ 38.7 µM)	bessere antimykotische Wirkung							
CCCC=CC(C(O)c1ccc(Oc2ccc(Cl)cc2)cc1)n1cncn1 (stereo not drawn) [Beispiel 38]	32 µg/mL (≈ 83.4 µM)	< 1 µg/mL	8 µg/mL (≈ 20.8 µM)	8 µg/mL (≈ 20.8 µM)	64 µg/mL (≈ 167 µM)	bessere antimykotische Wirkung							
CC(C(O)c1ccc(Oc2ccc(Cl)cc2Cl)cc1)n1cncn1 (stereo not drawn) [Beispiel 41]	32 µg/mL (≈ 87.9 µM)	4 µg/mL (≈ 11 µM)	< 1 µg/mL	16 µg/mL (≈ 43.9 µM)	8 µg/mL (≈ 22 µM)	bessere antimykotische Wirkung							
CC(n1cncn1)C(C)(O)c1ccc(Oc2ccc(Cl)cc2)cc1 (stereo not drawn) [Beispiel 44]	> 64 µg/mL	< 1 µg/mL	< 1 µg/mL	32 µg/mL (≈ 93.1 µM)	> 64 µg/mL	bessere antimykotische Wirkung							
CCCC(C(O)c1ccc(Oc2ccccc2)cc1)n1ccnc1 (stereo not drawn) [Beispiel 68]	32 µg/mL (≈ 99.3 µM)	4 µg/mL (≈ 12.4 µM)	< 1 µg/mL	16 µg/mL (≈ 49.6 µM)	32 µg/mL (≈ 99.3 µM)	bessere antimykotische Wirkung							

Further lines, with some results ahead:

MIC (Aspergillus fumig.)	MIC (Trichophyton mentagr.)	MIC (Candida albicans)	MIC (Microsporum canis)	MIC (Torulopsis glabrata)	Structure (SMILES)	antimykotische Wirkung [1]	Wirkungen [2]	Wirkung [2]	Wirkung (Candida-Zellen; [3])	Wirkung (Candida-Zellen; [4])	MHK-Werte in γ/ml Nährmedium, Microsporum canis (Microsporum canis)	MHK-Werte in γ/ml Nährmedium, Torulopsis glabrata (Torulopsis glabrata)	MHK-Werte in γ/ml Nährmedium, Candida albicans (Candida albicans)
64 µg/mL (≈ 172 µM)	< 1 µg/mL	< 1 µg/mL			CCCCC(C(O)c1ccc(Oc2ccc(Cl)cc2)cc1)n1cncn1 (single isomer, unassigned) [Beispiel 33]	bessere antimykotische Wirkung			+++++ (sehr gute Wirkung = 90 % Ueberlebende am 6.Tag p.i.)	bessere Wirkung	8 µg/mL	<1 µg/mL	
8 µg/mL (≈ 24.4 µM)	2 µg/mL (≈ 6.1 µM)	8 µg/mL (≈ 24.4 µM)	4 µg/mL (≈ 12.2 µM)	16 µg/mL (≈ 48.8 µM)	CC(C(=O)c1ccc(Oc2ccc(Cl)cc2)cc1)n1cncn1 (stereo not drawn) [Beispiel 9]	bessere antimykotische Wirkung			+++ (Wirkung = 60 % Ueberlebende am 6.Tag p.i.)	bessere Wirkung			
32 µg/mL (≈ 86.5 µM)	4 µg/mL (≈ 10.8 µM)	< 1 µg/mL	4 µg/mL (≈ 10.8 µM)	2 µg/mL (≈ 5.41 µM)	CC=CCC(C(O)c1ccc(Oc2ccc(Cl)cc2)cc1)n1cncn1 (stereo not drawn) [Beispiel 37]	bessere antimykotische Wirkung							
16 µg/mL (≈ 42.8 µM)	4 µg/mL (≈ 10.7 µM)	< 1 µg/mL	16 µg/mL (≈ 42.8 µM)	4 µg/mL (≈ 10.7 µM)	COCCC(C(O)c1ccc(Oc2ccc(Cl)cc2)cc1)n1cncn1 (stereo not drawn) [Beispiel 39]	bessere antimykotische Wirkung							
> 64 µg/mL	< 1 µg/mL	< 1 µg/mL	8 µg/mL (≈ 20.4 µM)	< 1 µg/mL	CCCC(C(O)c1ccc(Oc2ccc(Cl)cc2Cl)cc1)n1cncn1 (stereo not drawn) [Beispiel 40]	bessere antimykotische Wirkung							
16 µg/mL (≈ 45.7 µM)	< 1 µg/mL	< 1 µg/mL	4 µg/mL (≈ 11.4 µM)	2 µg/mL (≈ 5.71 µM)	OC(Cn1cncn1)c1ccc(Oc2ccc(Cl)cc2Cl)cc1 (stereo not drawn) [Beispiel 48]	bessere antimykotische Wirkung							
16 µg/mL (≈ 50.7 µM)	< 1 µg/mL	< 1 µg/mL	4 µg/mL (≈ 12.7 µM)	16 µg/mL (≈ 50.7 µM)	OC(Cn1cncn1)c1ccc(Oc2ccc(Cl)cc2)cc1 (stereo not drawn) [Beispiel 49]	bessere antimykotische Wirkung							
16 µg/mL (≈ 46.7 µM)	2 µg/mL (≈ 5.83 µM)	< 1 µg/mL	8 µg/mL (≈ 23.3 µM)	< 1 µg/mL	CCC(C(O)c1ccc(Oc2ccc(Cl)cc2)cc1)n1ccnc1 (stereo not drawn) [Beispiel 70]	bessere antimykotische Wirkung			+	bessere Wirkung			
32 µg/mL (≈ 86.3 µM)	< 1 µg/mL	< 1 µg/mL	8 µg/mL (≈ 21.6 µM)	2 µg/mL (≈ 5.39 µM)	CCCCC(C(O)c1ccc(Oc2ccc(Cl)cc2)cc1)n1ccnc1 (stereo not drawn) [Beispiel 72]	bessere antimykotische Wirkung							
64 µg/mL (≈ 179 µM)	4 µg/mL (≈ 11.2 µM)	4 µg/mL (≈ 11.2 µM)	16 µg/mL (≈ 44.8 µM)	2 µg/mL (≈ 5.6 µM)	CC(C)C(C(O)c1ccc(Oc2ccc(Cl)cc2)cc1)n1ccnc1 (stereo not drawn) [Beispiel 73]	bessere antimykotische Wirkung							
64 µg/mL (≈ 179 µM)	< 1 µg/mL	< 1 µg/mL	8 µg/mL (≈ 22.4 µM)	< 1 µg/mL	CCCC(C(O)c1ccc(Oc2ccc(Cl)cc2)cc1)n1ccnc1 (stereo not drawn) [Beispiel 74]	bessere antimykotische Wirkung							

From patent publication EP0084597A1, “Triazole and imidazole derivatives and pharmaceutical preparations containing them” (BAYER AG, priority 1981, dated 1983)
